These results are taken from patent publication US12528790B2, “Amide derivative having antiviral activity” (Shionogi & Co., Ltd., priority 2020, dated 2026).

The subject of one assay is RSV A2 strain. Briefly: In vitro CPE (CytoPathic Effect) inhibition effect evaluation test, RSV type A. The assay is classed as cell-based. The following applies: human respiratory syncytial virus. The method, boiled down: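 HEp-2 cells (2.4×10^5 cells/mL, 2% FBS E-MEM) were infected with RSV alongside 3-fold compound dilutions and incubated at 37 °C, 4 days for A2 and 5 days for B Wash/18537. Viable cells quantified by CellTiter-Glo 2.0 luminescence; EC50 by nonlinear regression as 50% CPE inhibition.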

Assay [1] concerns RSV B (Wash/18537 strain). Briefly: In vitro CPE (CytoPathic Effect) inhibition effect evaluation test, RSV type B. The assay is classed as cell-based. Conditions: human respiratory syncytial virus. How it is done: The test sample is diluted in advance to an appropriate concentration with DMSO, and 3-fold series of serial dilutions were prepared on a 384-well plate (0.32 μL/well). HEp-2 cells (CCL-23; ATCC) adjusted at appropriate number (2.4×10^5 cells/mL) in 2% FBS E-MEM (prepared by adding kanamycin and FBS to Eagle's Minimum Essential Medium; Invitrogen) were added at 12.5 μL/well to the 384-well plate previously aliquoted with the test samples. The RSV A2 strain was diluted to an appropriate concentration in a culture medium and added to the 384-well plate containing the test sample at 12.5 μL/well. The culture medium was added additionally to the 384-well plate, and the test was started with 50 μL/well. Control wells were prepared with only virus-free culture medium. The plate was incubated in a 5% CO2 incubator at 37° C. for 4 days, and the plate was then placed at room temperature for 30 minutes. CellTiter-Glo (registered trademark) 2.0 assay (Promega) was added at 15 μL/well, mixed for 30 seconds, and the plate was placed for approximately 1 hour. The luminescent signal was then measured by EnVision (PerkinElmer). The inhibitory effect of the test agents on RSV-induced CPE was calculated as 0% and 100% inhibition rate for each sample concentration based on the level of remaining viable cells by CellTiter-Glo (registered trademark) 2.0, with the EC50 value for each compound calculated by nonlinear regression as the concentration that inhibits RSV-induced CPE by 50%. In the case of evaluation against RSV type B, RSV B (Wash/18537 strain) was infected in the same manner as the type A, cultured for 5 days, and quantitated in the same manner as for the A2 strain.

Where [2] appears, read: inhibitory effect against RSV type A (RSV A2 strain), HEp-2 cells, CPE inhibition, read-out: EC50.
Setting [3] is: inhibitory effect against RSV type B, CPE inhibition, read-out: EC50.

Molecules are shown by their SMILES. pEC50: −log10 of the molar value. Like-named read-outs stand apart in the source and are kept apart here.

As usually defined, the pEC50 is the negative decadic logarithm of the EC50, by convention in mol/L. On to `O=C(NC1(C(=O)O)C2CC3CC(C2)CC1C3)c1cnc(N2CC3(CCOCC3)c3cc(OC4CCN(C5COC5)CC4)ccc32)nc1C(F)(F)F` (centres unmarked) [Compound I-184], for which the pEC50 (with RSV A2 strain (setting [2]); in assay [1] (setting [3])) was over 8.00 each time.
For `O=C(NC1(C(=O)O)C2CC3CC(C2)CC1C3)c1cnc(N2CC3(CCOCC3)c3cc(O[C@H]4CC[C@H](n5cccn5)CC4)ccc32)nc1C(F)(F)F` (some centres unmarked) [Compound I-193], the pEC50 (in the assay on RSV A2 strain (setting [2]); in assay [1] (setting [3])) was over 8.00 throughout.
On to `O=C(NC1(C(=O)O)C2CC3CC(C2)CC1C3)c1cnc(N2CC3(CCOCC3)c3cc(OC4CCS(=O)(=O)CC4)ccc32)nc1C(F)(F)F` (centres unmarked) [Compound I-203], for which the pEC50 (with RSV A2 strain (setting [2]); in assay [1] (setting [3])) was over 8.00 in each case.
For `CN1CCN(CCOc2ccc3c(c2)C2(CCOCC2)CN3c2ncc(C(=O)NC3(C(=O)O)C4CC5CC(C4)CC3C5)c(C(F)(F)F)n2)CC1` (centres unmarked) [Compound I-204], the values for the pEC50 (in the assay on RSV A2 strain (setting [2]); in assay [1] (setting [3])) were over 8.00 and 7.00 to 8.00, respectively.
On the same counts, the results for `O=C(NC1(C(=O)O)C2CC3CC(C2)CC1C3)c1cnc(N2CC3(CCCCC3)c3cc(OC4CCN(c5ncccn5)CC4)ccc32)nc1C(F)(F)F` (centres unmarked) [Compound I-214] are over 8.00 and over 8.00.
On the same counts, the results for `N#C[C@]12CC3C[C@H](C1)[C@](NC(=O)c1cnc(N4CC5(CCOCC5)c5cc(OC6CCN(c7ncccn7)CC6)ccc54)nc1C(F)(F)F)(C(=O)O)[C@@H](C3)C2` [Compound I-218] are over 8.00 and over 8.00.
Regarding `O=C(NC1(C(=O)O)C2CC3CC(C2)CC1C3)c1ccc(-c2cn(C3CCC(F)(F)CC3)c3cc(OC4CCN(c5ncccn5)CC4)c(F)cc23)nc1C(F)(F)F` (centres unmarked) [Compound I-221], the results for the pEC50 (in the assay on RSV A2 strain (setting [2]); in assay [1] (setting [3])) were over 8.00 and 5.30 to 7.00, respectively.
The matching figures for `O=C(NC1(C(=O)O)C2CC3CC(C2)CC1C3)c1ccc(-c2cn(C3CCC(F)(F)CC3)c3c(F)c(OC4CCN(c5ncccn5)CC4)ccc23)nc1C(F)(F)F` (centres unmarked) [Compound I-227]: over 8.00 and over 8.00.
Consider `O=C(NC1(C(=O)O)C2CC3CC(C2)CC1C3)c1cnc(-c2cn(C3CCC(F)(F)CC3)c3nc(OC4CCN(c5ncccn5)CC4)ccc23)nc1C(F)(F)F` (centres unmarked) [Compound I-228], for which the pEC50 in the assay with RSV A2 strain (HEp-2, 96 h, read-out: EC50, inhibitory effect against RSV type A (CPE inhibition)) was 8.89; in assay [1] (HEp-2, 120 h, HEp-2 cells, RSV B (Wash/18537 strain), 5 days, CellTiter-Glo, read-out: EC50, inhibitory effect against RSV type B (CPE inhibition)), 7.44.
In the case of `O=C(NC1(C(=O)O)C2CC3CC(C2)CC1C3)c1cnc(-c2cn(C3CCC(F)(F)CC3)c3cc(OC4CCN(C5COC5)CC4)ccc23)nc1C(F)(F)F` (centres unmarked) [Compound I-234], the pEC50 with RSV A2 strain (setting [2]) is over 8.00; in assay [1] (setting [3]), 7.00 to 8.00.
As for `O=C(NC1(C(=O)O)C2CC3CC(C2)CC1C3)c1cnc(-c2cn(C3CCC(F)(F)CC3)c3cc(OC4CCN(c5ncc(F)cn5)CC4)ccc23)nc1C(F)(F)F` (centres unmarked) [Compound I-237], the pEC50 (in the assay on RSV A2 strain (setting [2]); in assay [1] (setting [3])) was over 8.00 each time.
For `O=C(NC1(C(=O)O)C2CC3CC(C2)CC1C3)c1cnc(-c2cn(C3CCC(F)(F)CC3)c3cc(OC4CCN(c5ncccn5)CC4)ccc23)nc1C(F)(F)F` (centres unmarked) [Compound I-239], the negative logarithm of the EC50 (pEC50) (in the assay with RSV A2 strain (setting [2]); in assay [1] (setting [3])) was over 8.00 each time.
With `Cc1nc(-c2cn(C3CCOCC3)c3cc(OC4CCN(c5ncccn5)CC4)ccc23)nc(C(F)(F)F)c1C(=O)NC1(C(=O)O)C2CC3CC(C2)CC1C3` (centres unmarked) [Compound I-245], the pEC50 (with RSV A2 strain (setting [2]); in assay [1] (setting [3])) was over 8.00 throughout.
For `O=C(NC1(C(=O)O)C2CC3CC(C2)CC1C3)c1cnc(-c2cn(C3CCC(F)(F)CC3)c3cc(OC4CCN(C5CC(F)(F)C5)CC4)ccc23)nc1C(F)(F)F` (centres unmarked) [Compound I-249], the pEC50 is over 8.00 in the assay with RSV A2 strain (setting [2]) and 7.00 to 8.00 in assay [1] (setting [3]).
The matching figures for `COC1CC(n2cc(-c3ccc(C(=O)NC4(C(=O)O)C5CC6CC(C5)CC4C6)c(C(F)(F)F)n3)c3ccc(OC4CCN(c5ncccn5)CC4)cc32)C1` (centres unmarked) [Compound I-250]: over 8.00 and over 8.00.
On the same counts, the results for `O=C(NC1(C(=O)O)C2CC3CC(C2)CC1C3)c1cnc(-c2cn(C3CCC(F)(F)CC3)c3cc(OC4CCC5(CC4)COC5)ccc23)nc1C(F)(F)F` (centres unmarked) [Compound I-256] are over 8.00 and over 8.00.
